Laboratory results reported in PubChem BioAssay (NCI).
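Results reflect a 48-hour exposure of cells in 96-well plates to compound at five concentrations. TGI is the concentration that stops growth completely.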

Assays:
Test in all cases: NCI tumour cell line growth inhibition, 48 h
[1] = test system: MDA-N
[2] = test system: NCI-H522 lung
[3] = test system: UO-31 renal
[4] = test system: SNB-75 CNS
[5] = test system: HL-60(TB) leukemia
[6] = test system: HCT-15 colon
[7] = test system: MOLT-4 leukemia
[8] = test system: HCC-2998 colon
[9] = test system: A549 NSCLC
[10] = test system: M14 melanoma
[11] = test system: LOX IMVI melanoma
[12] = test system: COLO 205 colon
[13] = test system: CAKI-1 renal
[14] = test system: OVCAR-5 ovarian
[15] = test system: OVCAR-8 ovarian
[16] = test system: UACC-62 melanoma
[17] = test system: CCRF-CEM leukemia
[18] = test system: SF-539 CNS
[19] = test system: A498 renal

| SMILES | TGI [1] [µM] | TGI [2] [µM] | TGI [3] [µM] | TGI [4] [µM] | TGI [5] [µM] | TGI [6] [µM] | TGI [7] [µM] | TGI [8] [µM] | TGI [9] [µM] | TGI [10] [µM] | TGI [11] [µM] | TGI [12] [µM] | TGI [13] [µM] | TGI [14] [µM] | TGI [15] [µM] | TGI [16] [µM] | TGI [17] [µM] | TGI [18] [µM] | TGI [19] [µM] |
| --- | --- | --- | --- | --- | --- | --- | --- | --- | --- | --- | --- | --- | --- | --- | --- | --- | --- | --- | --- |
| CC(=O)Oc1cc(-c2oc3cc(OC(C)=O)c(C4OC(CO)C(O)C(O)C4O)c(OC(C)=O)c3c(=O)c2O)c(OC(C)=O)cc1O (stereo not drawn) | > 100 | > 100 | > 100 | > 100 | > 100 | > 100 | > 100 | > 100 | > 100 | > 100 | > 100 | > 100 | > 100 | > 100 | > 100 | > 100 | > 100 |  |  |
| CC1CCc2c(sc3ncnc(N/N=C/c4ccc(Cl)cc4)c23)C1 (stereo not drawn) |  | 65.1 | 29.7 | > 100 | 43.5 | > 100 | 57.3 | > 100 | > 100 | 68.2 | 70.6 | > 100 | 89.5 | > 100 | > 100 | > 100 |  |  |  |
| Cc1cccc(N=N/C(=N\NC(=O)c2cc(Cl)ccc2O)c2ccc(N(CCC#N)CCC#N)cc2C)c1 | > 100 | 72.6 | 82.9 | > 100 | 34.4 | 88.2 | 39.9 | 58.7 | > 100 | > 100 | > 100 | 29.3 | > 100 | > 100 | > 100 | 84.6 | 34.3 | > 100 |  |
| Cc1cc(=O)oc2c(C)c3oc(CBr)cc3cc12 | 40.9 | 30.1 | 30.3 | 47.4 | > 100 | 44.3 | 54.3 | 31.9 | 33.3 | 34.8 | 31.1 | 34.2 | 31.8 | 36.8 | 66.7 | 33.9 | 54.2 | 50.7 |  |
| CC(C)[Si](Oc1ccc(CC2N(C(=O)c3ccc([N+](=O)[O-])cc3)C(CCc3ccccc3)CC2(C)C=O)cc1)(C(C)C)C(C)C (stereo not drawn) |  | > 100 | > 100 |  |  | > 100 |  | > 100 |  |  | > 100 | > 100 | > 100 | > 100 | 42.5 | > 100 | > 100 | 23.2 | > 100 |
| CC(C)C(CCOS(=O)(=O)O)CCC(C)[C@H]1[C@@H](O)C(O)C2[C@]3(O)C[C@@H](O)C4(O)C[C@@H](O)CC[C@]4(C)C3CC[C@@]21C (stereo partly drawn) |  | > 100 | > 100 |  | > 100 | > 100 |  | > 100 | > 100 | > 100 | > 100 | > 100 | > 100 |  | > 100 | > 100 | > 100 | > 100 |  |
| C[C@]12CCc3nn(-c4ccccc4)nc3C1CC[C@@H]1C2CC[C@]2(C)C(=O)CCC12 (stereo partly drawn) |  | > 100 | > 100 | > 100 | > 100 | > 100 | > 100 | > 100 | > 100 | > 100 | > 100 | > 100 | > 100 | > 100 | > 100 | > 100 | > 100 | > 100 |  |
| CN(/N=C/C=N/N(C)C1=NCCN1)C1=NCCN1 | > 100 | > 100 | > 100 | > 100 |  | > 100 | > 100 | > 100 | > 100 | > 100 | > 100 | > 100 | > 100 | > 100 | > 100 | > 100 | > 100 | > 100 |  |
| CCN(/N=C1\CC2C=CCN(C2)C(=O)Cc2c1[nH]c1ccccc21)S(=O)(=O)c1ccc(C)cc1 (stereo not drawn) |  | > 100 | > 100 | > 100 | > 100 | > 100 | > 100 | > 100 | > 100 |  | > 100 | > 100 | > 100 |  | > 100 | > 100 | > 100 | > 100 |  |
| O=C(CC(=O)N1N=C(N(c2ccccc2)c2ccccc2)CC1c1ccccc1)Nc1cccc(Cl)c1 (stereo not drawn) |  | > 100 | > 100 | > 100 | > 100 | > 100 | > 100 | > 100 | > 100 | > 100 |  | > 100 | > 100 | > 100 | > 100 | > 100 | > 100 | > 100 |  |
| C=C1CN2CCc3c([nH]c4ccccc34)C2CC1CC(=O)N(C)C (stereo not drawn) |  | > 309 |  |  | > 309 | > 309 | > 309 | > 309 | > 309 |  | > 309 | > 309 | > 309 |  | > 309 | > 309 | > 309 | > 309 |  |
| CC(N)C(C)c1ccccc1 (stereo not drawn) |  | > 100 | > 100 | > 100 | > 100 | > 100 | > 100 | > 100 | > 100 | > 100 | > 100 | > 100 | > 100 | > 100 | > 100 | > 100 | > 100 | > 100 | > 100 |
| Cn1c(=O)n(C2(C)CSC2)c2ccccc21 |  | > 100 | > 100 | > 100 | > 100 | > 100 | > 100 | > 100 | > 100 | > 100 | > 100 | > 100 | > 100 | > 100 | > 100 | > 100 | > 100 | > 100 | > 100 |
| COc1ccc(-c2cc(=O)c3cc(O)ccc3o2)c(OC)c1OC |  | 64.6 |  | 76.5 | 37.2 | > 100 |  | > 100 | > 100 | > 100 | 57.1 | > 100 | > 100 | 81.4 |  | > 100 | 70.6 | > 100 |  |
